From patent US20250345350A1, “TREATING PAIN ASSOCIATED WITH CENTRAL SENSITIZATION” (Medicon Pharmaceuticals, Inc., priority 2022, published 2025)
Read-outs that look alike come from different tables or passages of the source.

Columns and labels:
[1] = system: STZ-induced central sensitization in Sprague-Dawley rats; test: PWT (von Frey), streptozotocin rat model of central sensitization (Example 4); format: in vivo; settings: week 7; PS 8% hydrogel to both hind paws 3 times a day for 3 weeks from week 4 after STZ
Procedure: Sprague-Dawley rats were fasted for 4-6 hours before being injected intraperitoneally with 45 mg/kg STZ. This was performed for all experimental groups, except the naive group. In order to prevent hypoglycaemic death, rats received 10% sucrose water as the sole water source for the first 48 hours after injection. In order to ensure only those rats considered diabetic (i.e., having non-fasting plasma glucose levels of >250 mg/dL) were included in the study, blood glucose was measured at 72 hours after the STZ injection.
Four weeks after STZ injection, the rats were randomised into treatment groups. This delay between STZ injection and treatment allows the establishment of chronic pain (allodynia) associated with central sensitization. […] 5% lidocaine cream (positive control) was applied only once to both hind paws of the rats 30 minutes before measurement of PWT.
The rats were split into 8 study groups, with those in the experimental groups (1-4) having an average body weight of about 225 g, and those in the control groups (5-8) having an average body weight of about 335 g, as follows: • 1. Group 1: naive rats (n=5) • 2. Group 2: STZ only (n=6) • 3. Group 3: STZ plus vehicle (n=6) • 4. […] Group 5: STZ plus oral vehicle (n=8) • 6. Group 6: STZ plus 0.7% sulindac hydrogel (n=7) • 7. Group 7: STZ plus 5% lidocaine cream (n=8) • 8.

[2] = system: PHN induced by HSV-1 KOS strain virus in BALB/c mice; test: PWT (von Frey), HSV-1 mouse model of PHN, topical (Example 20); format: in vivo
Procedure: PHN was induced in mice by infecting them with the HSV-1 KOS strain virus and following established protocols (Ou et al, Front Immunol, 14, 1026269, 2023; Takasaki et al, Anesthesiology, 96(5), 1168-74, 2002).
; Reckitt Benckiser). Three days later, HSV-1 (10^6 PFUs in 20 μl PBS) was inoculated on the shin of the right hind paw (5×5 mm) after scarification with sandpaper. The virus was applied directly to the scarified area. The contralateral hind paw was without inoculation. Mock infection was performed using the same virus inactivated by heating at 60° C. for 1 h.
. Group 1: sham inoculated (n=5-7) • 2.
In a second experiment, the effect of the parent compound, sulindac, was tested in the same mouse model. Five days post-inoculation, sulindac (as a 5% gel), or vehicle control were administered topically onto both hind paws of mice three times a day for three days.
. Group 1: vehicle control (n=5-7) • 2. Group 2: sulindac 5% (n=5-7)

[3] = Pharmacokinetics and biodistribution after topical PS 8% ointment to hind paws (Example 25); format: in vivo, mouse; settings: normal mice, topical PS 8% ointment to hind paws; for AUC(0-t) / Cmax / half-life: mouse, in vivo, topical or ocular, 50 μl per paw of PS 8% ointment; for AUC(0-t): read-out: AUC0-24 h; for Cmax: read-out: Cmax, mean ± SEM
Procedure: At 0.5, 1, 3, 5, 12, 18, and 24 h, mice (n=4-5 mice/time point) were euthanized with CO2 inhalation. Blood was drawn immediately after death. Tissues, including paw skin, paw muscle, leg muscle, the sciatic nerve and lumbar DRG bilaterally were dissected quickly, immediately frozen in liquid nitrogen and stored at −80° C. until analyzed.

[4] = PS and metabolites in proximal and distal half of the sciatic nerve (Example 25); format: in vivo, mouse; settings: mice with paclitaxel-induced PN, PS 8% ointment 3x/d for 2 wks, 30 min after last dose; for concentration at 30 min: mouse, in vivo, 8 % PS ointment, 3×/d
Procedure: In a separate experiment we studied 8 mice with paclitaxel-induced PN treated with PS 8% ointment 3×/d for 2 wks. Mice were euthanized as above 30 minutes after the last dose of PS. From these mice we harvested both sciatic nerves dividing each into proximal and distal halves, and combined the corresponding halves of every two animals for assay of drug levels.

[5] = Pharmacokinetics and biodistribution after 3% PS gel on outer surface of eyelid (Example 26); format: in vivo, rabbit; settings: male, New Zealand White, rabbit, rabbits, 3% PS gel on outer surface of upper eyelids; for Cmax / half-life / AUC(0-t): topical or ocular; for AUC(0-t): read-out: AUC0-24 h; for concentration at 0.5 h / concentration at 1 h / concentration at 2 h / concentration at 4 h / concentration at 8 h / concentration at 24 h: topical, read-out: Amount in tissue, Mean ± SEM
Procedure: The pharmacokinetics and biodistribution of 3% PS gel applied to the outer surface of both upper eyelids was studies in male New Zealand White rabbits.
Eyelid and tissues of the globe were dissected and frozen quickly in liquid nitrogen until the levels of PS and its metabolites were determined by HPLC as described Xie et al. (Br J Pharmacol (2012);165:2152-66).

[6] = system: paclitaxel-induced central sensitization in C57/BL/6J mice; settings: day 14
Procedure: Regarding the treatment with lidocaine: 5% lidocaine cream (a positive control) was applied once to both hind paws of the mice 30 minutes before measurement of PWT.
Briefly, for mechanical allodynia, pain threshold responses were measured using the well-established method of von Frey filaments in line with that performed in the earlier Examples. The PWT test was performed on day-8 (before the first dose of paclitaxel), the day of starting treatment (day 0, at which central sensitization was fully established) and day 14 (treatment continued until day 15). The mechanical threshold, expressed as g, indicates the force of the von Frey filament to which the animal reacted.

[7] = system: NTG-induced chronic migraine in mice; test: PWT (von Frey), NTG-induced chronic migraine model, oral (Example 16)
Procedure: In particular, mice receive sublingual NTG 0.4 mg in the form of a finely crushed 0.4 mg NTG tablet (Greenstone Brand) every two days, receiving a total of five doses. For control mice, an NTG placebo (Practi-Nitroglycerin Sublingual 0.4 mg Simulated Medication tablet) was administered in the same way.
Group 1: placebo NTG (i.e, no NTG treatment, n=8) • 2. Group 2: NTG (n=8) • 3. Group 3: NTG+vehicle (n=8) • 4. […] Group 5: NTG+sulindac (n=8)
Mechanical allodynia was determined using von Frey filaments in line with that performed in the earlier Examples. The PWT test was performed prior to NTG (or placebo NTG) administration to determine baseline values, as indicated. […] The mechanical threshold, expressed as g, indicates the force of the von Frey filament to which the animal reacted.

[8] = system: NTG-induced migraine in C57BL/6J mice; test: PWT (von Frey), NTG-induced migraine mouse model, topical (Example 13)
Procedure: Specifically, instead of the intraperitoneal injection of NTG, a finely crushed 0.4 mg NTG tablet (Greenstone Brand) was administered sublingually. As a control, a Practi-Nitroglycerin Sublingual 0.4 mg Simulated Medication tablet was used.
For determining mechanical allodynia, pain threshold responses were measured using the well-established method of von Frey filaments in line with that performed in the earlier Examples.
The PWT test, assessing mechanical allodynia, was performed 30 minutes after treatment. The mechanical threshold, expressed as g, indicates the force of the von Frey filament to which the animal reacted.

With CCOP(=O)(OCC)OCCCCOC(=O)CC1=C(C)/C(=C/c2ccc([S+](C)[O-])cc2)c2ccc(F)cc21 (centres unmarked) [PS, phosphosulindac] the “PWT, gm Mean ± SEM” value [1] was 22.5 ± 2.20 gm, the “PWT, g Mean ± SEM” value ([2]; Post-inoculation, day 5 (before treatment)) was 0.53 ± 0.06 g and the “PWT, g Mean ± SEM” value ([2]; Post-treatment, PS 5% gel on both hind paws three times a day for three days) was 0.93 ± 0.06 g. For the same compound, the “PWT, g Mean ± SEM” value ([2]; Pre-inoculation) was 1.27 ± 0.19 g, the AUC(0-t) ([3]; DRG (dorsal root ganglia)) was 4.5 µM·h and the Cmax ([3]; DRG (dorsal root ganglia)) was 0.3 ± 0.1 µM. The half-life ([3]; SN (sciatic nerve)) was 3440 min, the AUC(0-t) ([3]; SN (sciatic nerve)) was 12 µM·h and the Cmax ([3]; SN (sciatic nerve)) was 0.9 ± 0.1 µM. It also gave a half-life ([3]; leg muscle) of 1240 min, an AUC(0-t) ([3]; leg muscle) of 172 µM·h and a Cmax ([3]; leg muscle) of 35 ± 3.6 µM. For the same compound, the half-life ([3]; paw muscle) was 684 min, the AUC(0-t) ([3]; paw muscle) was 411 µM·h and the Cmax ([3]; paw muscle) was 102 ± 4.6 µM. For the same compound, the half-life ([3]; paw skin) was 966 min, the AUC(0-t) ([3]; paw skin) was 1610 µM·h and the Cmax ([3]; paw skin) was 195 ± 5.3 µM. For the same compound, the “detection in the systemic circulation” value [3] was “no PS was detected”, the “Distal half of sciatic nerve, mean ± SEM” value [4] was 17.0 ± 5.1 µM and the “Proximal half of sciatic nerve, μM, mean ± SEM” value [4] was 0.9 ± 0.3 µM. For the same compound, the concentration at 30 min ([4]; read-out: Distal half of sciatic nerve, mean ± SEM) was 17 ± 5.1 µM, the concentration at 30 min ([4]; read-out: Proximal half of sciatic nerve, μM, mean ± SEM) was 0.9 ± 0.3 µM and the Cmax ([5]; conjunctiva) was 5.8 µM. It also gave a half-life ([5]; conjunctiva) of 342 min, an AUC(0-t) ([5]; conjunctiva) of 58.6 ± 0.9 µM·h and a Cmax ([5]; cornea) of 1.8 µM. It also gave a half-life ([5]; cornea) of 1380 min, an AUC(0-t) ([5]; cornea) of 6.4 ± 0.4 µM·h and a Cmax ([5]; eyelid) of 14.2 µM. The half-life ([5]; eyelid) was 864 min, the AUC(0-t) ([5]; eyelid) was 45.2 ± 0.5 µM·h and the concentration at 0.5 h ([5]; AH (aqueous humor)) was 0 nM. It also gave a concentration at 1 h ([5]; AH (aqueous humor)) of 0 nM, a concentration at 2 h ([5]; AH (aqueous humor)) of 0 nM and a concentration at 4 h ([5]; AH (aqueous humor)) of 0 µM. The concentration at 8 h ([5]; AH (aqueous humor)) was 0 nM, the concentration at 24 h ([5]; AH (aqueous humor)) was 0 nM and the concentration at 0.5 h ([5]; conjunctiva) was 1300 ± 100 nM. For the same compound, the concentration at 1 h ([5]; conjunctiva) was 1800 ± 300 nM, the concentration at 2 h ([5]; conjunctiva) was 400 ± 100 nM and the concentration at 4 h ([5]; conjunctiva) was 6.1 ± 3.3 µM. It also gave a concentration at 8 h ([5]; conjunctiva) of 3400 ± 1400 nM, a concentration at 24 h ([5]; conjunctiva) of 500 ± 400 nM and a concentration at 0.5 h ([5]; cornea) of 1800 ± 900 nM. For the same compound, the concentration at 1 h ([5]; cornea) was 1300 ± 200 nM, the concentration at 2 h ([5]; cornea) was 1400 ± 100 nM and the concentration at 4 h ([5]; cornea) was 0.5 ± 0.1 µM. It also gave a concentration at 8 h ([5]; cornea) of 1100 ± 600 nM, a concentration at 24 h ([5]; cornea) of 0 nM and a concentration at 0.5 h ([5]; eyelid) of 8300 ± 2200 nM. For the same compound, the concentration at 1 h ([5]; eyelid) was 14200 ± 5300 nM, the concentration at 2 h ([5]; eyelid) was 2000 ± 500 nM and the concentration at 4 h ([5]; eyelid) was 3.5 ± 1.9 µM. The concentration at 8 h ([5]; eyelid) was 200 ± 200 nM, the concentration at 24 h ([5]; eyelid) was 1800 ± 1300 nM and the concentration at 0.5 h ([5]; vitreous) was 0 nM. It also gave a concentration at 1 h ([5]; vitreous) of 0 nM, a concentration at 2 h ([5]; vitreous) of 0 nM and a concentration at 4 h ([5]; vitreous) of 0 µM. The concentration at 8 h ([5]; vitreous) was 0 nM, the concentration at 24 h ([5]; vitreous) was 0 nM and the “PWT, g Mean ± SEM” value ([6]; PS 1.2% (equimolar to sulindac 0.7%) 3 times a day) was 0.98 ± 0.06 g. For the same compound, the “PWT, g Mean ± SEM” value ([6]; PS hydrogel 5% or 0.7% sulindac 3 times a day, 5% lidocaine cream once 30 min before, pregabalin 10 mg/kg orally once 1 h before) was 1.24 ± 0.07 g, the “PWT, g Mean ± SEM” value ([7]; Baseline, prior to NTG administration) was 2.28 ± 0.34 g and the “PWT, g Mean ± SEM” value ([7]; Day 11, orally once a day for 11 days concurrent with NTG, PS 50 mg/kg, sulindac 33 mg/kg) was 1.18 ± 0.10 g. For the same compound, the “PWT Post-treatment Mean ± SEM” value ([8]; 30 min after treatment, PS 8% gel or sulindac 5.3% (in DMSO) on both hind paws 30 min after NTG) was 1.00 ± 0.12 g and the “PWT Baseline Mean ± SEM” value ([8]; baseline of the group, before NTG and treatment) was 1.72 ± 0.10 g.
